Source: patent US11866695B2, “Methods and systems and related compositions for mixtures separation with a solid matrix” (CALIFORNIA INSTITUTE OF TECHNOLOGY, priority 2019, dated 2024)

Experiments:
[1] = tested on: LAMP spiked with 5×104 copies λ phage DNA; assay: TPW screen with LAMP (1 μL wash candidate added to 10 μL reaction); assay type: biochemical; details: 1 μL candidate in 11 μL total
Experimental: LAMP primers (Integrated DNA Technologies (IDT), Coralville, Iowa, USA) were designed, ordered, and added at NEB's recommended concentrations of […] FIP/BIP, 0.2μM F3/B3, and […] LoopF/B.
Each 96-well plate was sealed and briefly spun. […] Time-to-positive (TTP) was determined when the software's automated baseline corrected fluorescence reached 1000 RFU.
Criterion 1a was investigated directly by performing qPCR and LAMP reactions. Reactions were spiked with λ phage DNA, diluted up to 10 μL, and an additional 1 μL of different wash buffer candidates was added to a total of 11 μL. […] As an experimental control, a “No Additive” condition was tested, which was a 10 μL reaction with optimized reaction conditions and no inhibitors. To control for the effects of a 1 μL dilution on the reaction, a “Water” condition which was an 11 μL reaction with no inhibitors was also tested.

λ phage DNA = assay: Zymo Quick-DNA/RNA MagBead extraction with air dry replaced by TPW, LAMP; assay type: biochemical; details: 10× dilution of eluent into LAMP
Experimental: LAMP reactions contained the following concentrations of reagents: 1× Isothermal Amplification Buffer (20 mM Tris-HCl pH 8.8, 10 mM (NH4)2SO4, 50 mM KCl, 5 mM MgSO4, 0.1% Tween-20, B0537S, NEB, Ipswich, Mass., USA), an additional 2 mM MgSO4 (B1003S, NEB), 1.4 mM deoxynucleotide mix (N0447L or N0446S, NEB), […] Invitrogen Syto-9 (S34854, Thermo Fisher Scientific), […] Invitrogen bovine serum albumin (15561020, Thermo Fisher Scientific), 320 U/mL WarmStart Bst 2.0 (M0538L, NEB), and were supplemented with nuclease-free water (not DEPC-Treated, 4387936, Thermo Fisher Scientific) up to 10 μL. LAMP primers (Integrated DNA Technologies (IDT), Coralville, Iowa, USA) were designed, ordered, and added at NEB's recommended concentrations of […] FIP/BIP, 0.2μM F3/B3, and […] LoopF/B.
Each 96-well plate was sealed and briefly spun. Heating and real-time imaging were performed on the Bio-Rad CFX-96 Touch Real-Time PCR Detection System (1855195, Bio-Rad). Each 96-well plate was cooled to 12° C. for 2 min, held at 68° C. for 47 min with 35-second fluorescence read intervals, and a melt-curve analysis was performed. For the E. coli DNA dilution experiment, the 68° C. step was held for 105 min. Time-to-positive (TTP) was determined when the software's automated baseline corrected fluorescence reached 1000 RFU.
The Zymo Quick-DNA/RNA Viral MagBead (R2140) was tested. […]

CCCCCCCCCCCO [1-undecanol]
Avg TTP ([1]; N.D. = not detected within 40 min): 6.70 min | ΔTTP ([1]; minus the No additive control): 0.16 min | TTP improvement (λ phage DNA): 0.7 min
